Experimental data: US20210292340A1, “CELL NECROSIS INHIBITOR, PREPARATION METHOD THEREFOR AND USE THEREOF” (SHANGHAI INSTITUTE OF ORGANIC CHEMISTRY, CHINESE ACADEMY OF …, priority 2018, published 2021)
Like-named read-outs stand apart in the source and are kept apart here.

Assays:
Jurkat (FADD−/−) cells = experiment: Inhibition of TNF-induced programmed Jurkat (FADD−/−) cell necrosis (Cell Titer-Glo); assay type: cell-based, human; settings: 20 h, read-out: Cellular IC50 (M) Jurkat (FADD−/−)
Protocol: Two replicate wells were set for each concentration of each compound.
Jurkat (FADD^−/−) cells (human-derived peripheral blood leukemia T cell line, with FADD gene knocked out) were cultured in vitro. After growing to logarithmic growth phase, the cells were harvested, and centrifuged at 1000 rpm for 5 min. The supernatant was discarded, and the cells were resuspended in fresh medium and adjusted to a cell density of 5×10^5/mL. The cell suspension was added to the culture plate containing the drug (40 μL per well). In the treatment groups, 10 μL of TNF (tumor necrosis factor, final concentration 10 ng/mL) diluted with the cell culture medium was added to each well, and incubated for 20 h in a cell incubator (37° C., 5% CO2). Subsequently, 50 μL of Cell Titer-Glo solution was added to each well and incubated at room temperature for 10 min. Then, the luminescence was detected on BioTek plate reader to measure the intracellular ATP level. The effect of the test compounds in inhibiting TNF-induced cell necrosis was calculated from the full-activity well and background well (with the untreated DMSO control well as 100% cell viability), and the half inhibitory concentration (IC50) of the compound was calculated by Graphpad Prism statistical software.

human RIP1 = target: T1, human RIP1 (Homo sapiens, UniProt Q13546); experiment: Inhibition of ADP-Glo RIP1 kinase activity; assay type: biochemical
T1 construct: made in house; host or cells: Sf-9 insect cells
T1 sequence (Q13546 1-671): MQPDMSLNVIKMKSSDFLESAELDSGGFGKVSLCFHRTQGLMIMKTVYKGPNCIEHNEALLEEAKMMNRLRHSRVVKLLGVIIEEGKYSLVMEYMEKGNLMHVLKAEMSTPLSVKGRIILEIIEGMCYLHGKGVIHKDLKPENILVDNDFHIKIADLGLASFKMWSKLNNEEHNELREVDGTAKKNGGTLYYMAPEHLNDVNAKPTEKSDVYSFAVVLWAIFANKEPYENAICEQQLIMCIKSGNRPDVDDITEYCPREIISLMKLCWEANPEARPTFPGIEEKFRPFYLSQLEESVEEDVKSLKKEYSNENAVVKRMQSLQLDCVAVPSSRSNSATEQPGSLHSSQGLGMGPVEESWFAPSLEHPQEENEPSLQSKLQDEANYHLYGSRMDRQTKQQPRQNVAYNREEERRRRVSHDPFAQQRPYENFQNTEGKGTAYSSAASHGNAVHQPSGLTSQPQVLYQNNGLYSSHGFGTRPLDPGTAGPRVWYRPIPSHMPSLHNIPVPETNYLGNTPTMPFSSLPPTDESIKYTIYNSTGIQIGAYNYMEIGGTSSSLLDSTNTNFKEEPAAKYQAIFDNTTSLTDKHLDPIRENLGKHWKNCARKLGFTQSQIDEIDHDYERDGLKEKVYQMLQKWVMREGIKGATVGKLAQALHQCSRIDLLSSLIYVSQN
Protocol: The human RIP1 gene was transduced into Sf-9 insect cells, and the RIP1 protein was purified by Ni+ affinity chromatography and then by S-200 molecular sieve to remove the protein multimers. The obtained RIP1 protein was stored at −70° C., and the activity of the RIP1 protein in catalyzing autophosphorylation was detected by the ADP-Glo™ Kinase Activity Assay Kit (Promega) and the inhibitory activity of the drug against the RIP1 kinase was determined.
100 nL of the compound was transferred to a 384-well assay plate. Two replicate wells were set for each concentration of each drug.
The RIP1 enzyme solution and ATP solution were formulated in an assay buffer (containing 50 mM HEPES pH 7.5, 30 mM MgCl2, 50 mM NaCl, 1 mM DTT, 0.02% CHAPS, and 0.5 mg/ml BSA). Then, 5 μL of the RIP1 enzyme solution (final concentration 50 nM) was added to the assay plate and incubated at room temperature for 1 h. 5 μL of the ATP solution (final concentration 10 μM) was added to the assay plate, and incubate at room temperature for 4 h. Then 5 μL of ADP-Glo reagent was added to the assay plate, and incubated at room temperature for 60 min. 5 μL of a kinase assay solution was added to the assay plate, and incubated at room temperature for 30 min. After readout on Envision, the inhibition rate in each well was calculated from the full-activity well and the background well, and the Ki of the compound was calculated by GraphPad Prism 7 software (using the Morrision equation to fit the curve and calculate the Ki).

[1] = Homo sapiens, Jurkat, TNF 10 ng/mL, intracellular ATP level

| Structure (SMILES) | IC50 (Jurkat (FADD−/−) cells; [1]) | Ki (human RIP1) | IC50 (Jurkat (FADD−/−) cells; TNF 10 ng/mL, intracellular ATP level) | IC50 (Jurkat (FADD−/−) cells; Homo sapiens, Jurkat) |
| --- | --- | --- | --- | --- |
| CN1C(=O)[C@@H](NC(=O)c2nnc(Cc3ccccc3)[nH]2)COc2cc3occc3cc21 [RIP1-127] | 3.28e-09 M | 16.2 nM | – | – |
| CN1C(=O)[C@@H](NC(=O)c2noc(Cc3ccccc3)n2)COc2cc3[nH]nnc3cc21 [RIP1-140] | 1.37e-09 M | 50.6 nM | – | – |
| CN1C(=O)[C@@H](NC(=O)c2ncn(Cc3ccccc3)n2)COc2ccc3ncccc3c21 [RIP1-098] | 7.25e-10 M | 20.9 nM | – | – |
| CN1C(=O)[C@@H](NC(=O)c2cn(Cc3ccccc3)nn2)COc2cc3[nH]nnc3cc21 [RIP1-138] | 1.68e-08 M | 19.8 nM | – | – |
| COc1ncnc2cc3c(cc12)N(C)C(=O)[C@@H](NC(=O)c1ncn(Cc2ccccc2)n1)CO3 [RIP1-145] | 4.61e-10 M | 10.5 nM | – | – |
| CN1C(=O)[C@@H](NC(=O)c2nnc(Cc3ccccc3)[nH]2)COc2ccc3ncccc3c21 [RIP1-097] | 1.2e-09 M | 23.2 nM | 2.28e-09 M | – |
| CN1C(=O)[C@@H](NC(=O)c2ncn(Cc3ccccc3)n2)COc2cc3[nH]nnc3cc21 [RIP1-136] | 9.34e-09 M | 17.8 nM | – | – |
| CN1C(=O)[C@@H](NC(=O)c2cn(Cc3ccccc3)nn2)COc2cc3occc3cc21 [RIP1-121] | – | 32.7 nM | – | 1.37e-08 M |
| Cc1ccc(Cc2cc(C(=O)N[C@H]3COc4cc5nccnc5cc4N(C)C3=O)nn2C)cc1 [RIP1-133] | 5.3e-08 M | 23.1 nM | – | – |
| CN1C(=O)[C@@H](NC(=O)c2cn(Cc3ccccc3)cn2)COc2cc3[nH]nc(Cl)c3cc21 [RIP1-031] | 2.9e-10 M | 0.66 nM | – | – |
| CN1C(=O)[C@@H](NC(=O)c2cn(Cc3ccccc3)cn2)COc2ccc3cnccc3c21 [RIP1-109] | 7.22e-10 M | 6.85 nM | – | – |
| CN1C(=O)[C@@H](NC(=O)c2nnc(Cc3ccccc3)[nH]2)COc2ccc3cnccc3c21 [RIP1-107] | – | 8.9 nM | – | 1.07e-09 M |
| CN1C(=O)[C@@H](NC(=O)c2noc(Cc3ccccc3)n2)COc2cc3occc3cc21 [RIP1-123] | 1.33e-09 M | 23.2 nM | – | – |
| CN1C(=O)[C@@H](NC(=O)c2nnn(Cc3ccccc3)n2)COc2cc3occc3cc21 [RIP1-122] | 2.26e-10 M | 15.6 nM | – | – |
| COc1ncnc2cc3c(cc12)N(C)C(=O)[C@@H](NC(=O)c1n[nH]c(Cc2ccccc2)n1)CO3 [RIP1-146] | 1.85e-09 M | 13.2 nM | – | – |
| CN1C(=O)[C@@H](NC(=O)c2noc(Cc3ccccc3)n2)COc2cc3nccnc3cc21 [RIP1-132] | 4.57e-09 M | 19.3 nM | – | – |
| CN1C(=O)[C@@H](NC(=O)c2cn(Cc3ccccc3)nn2)COc2ccc3ncccc3c21 [RIP1-100] | 3.27e-08 M | 20.4 nM | – | – |
| Cc1nc2cc3c(cc2[nH]1)OC[C@@H](NC(=O)c1cncn1Cc1ccccc1)C(=O)N3C (stereo in doubt) [RIP1-069] | 4.52e-09 M | 31.3 nM | – | – |
| CN1C(=O)[C@@H](NC(=O)c2nnc(Cc3ccccc3)[nH]2)COc2cc3nccnc3cc21 [RIP1-135] | 4.25e-09 M | 21.5 nM | – | – |
| CN1C(=O)[C@@H](NC(=O)c2cn(Cc3ccccc3)nn2)COc2ccc3cnccc3c21 [RIP1-110] | 4.44e-09 M | 14.6 nM | – | – |
| CN1C(=O)[C@@H](NC(=O)c2cn(Cc3ccccc3)cn2)COc2cc3occc3cc21 [RIP1-120] | 2.56e-09 M | 20.7 nM | – | – |
| Cc1nc2cc3c(cc2[nH]1)OC[C@H](NC(=O)c1cc(Cc2ccccc2)on1)C(=O)N3C [RIP1-061] | 5.86e-09 M | 44 nM | – | – |
| CN1C(=O)[C@@H](NC(=O)c2cc(Cc3ccccc3)on2)COc2cc3[nH]ncc3cc21 [RIP1-021] | 5.8e-10 M | 10.3 nM | – | – |
| CN1C(=O)[C@@H](NC(=O)c2cn(Cc3ccccc3)cn2)COc2ccc3ncccc3c21 [RIP1-099] | 6.92e-09 M | 37.7 nM | – | – |

| Structure (SMILES) | IC50 (Jurkat (FADD−/−) cells; [1]) | Ki (human RIP1) | IC50 (Jurkat (FADD−/−) cells; TNF 10 ng/mL, intracellular ATP level) | IC50 (Jurkat (FADD−/−) cells; Homo sapiens, Jurkat) |
| --- | --- | --- | --- | --- |
| CN1C(=O)[C@@H](NC(=O)c2ncn(Cc3ccccc3)n2)COc2ccc3cnccc3c21 [RIP1-108] | 1.64e-10 M | 12.6 nM | – | – |
| CN1C(=O)[C@@H](NC(=O)c2cn(Cc3ccccc3)cn2)COc2cc3[nH]nnc3cc21 [RIP1-137] | 7.31e-09 M | 13.3 nM | – | – |
| CN1C(=O)[C@@H](NC(=O)c2cc(Cc3ccccc3)on2)COc2cc3[nH]nnc3cc21 [RIP1-142] | 1.86e-09 M | 19.1 nM | – | – |
| COc1ncnc2cc3c(cc12)N(C)C(=O)[C@@H](NC(=O)c1cn(Cc2ccccc2)cn1)CO3 [RIP1-147] | 1.69e-09 M | 16.5 nM | – | – |
| CN1C(=O)[C@@H](NC(=O)c2cc(Cc3ccccc3)on2)COc2ccc3cnccc3c21 [RIP1-111] | 1.16e-09 M | 18.5 nM | – | – |
| CN1C(=O)[C@@H](NC(=O)c2ncn(Cc3ccccc3)n2)COc2cc3[nH]nc(Cl)c3cc21 [RIP1-032] | – | 20.3 nM | – | 2.4e-10 M |
| CN1C(=O)[C@@H](NC(=O)c2cc(Cc3ccccc3)on2)COc2ccc3ncccc3c21 [RIP1-101] | 5.5e-09 M | 17.2 nM | – | – |
| CN1C(=O)[C@@H](NC(=O)c2n[nH]c(Cc3ccccc3F)n2)COc2cc3ncoc3cc21 [RIP1-206] | 8.18e-10 M | – | – | – |
| CN1C(=O)[C@@H](NC(=O)c2n[nH]c(Cc3c(F)cc(F)cc3F)n2)COc2cc3occc3cc21 [RIP1-173] | 7e-08 M | – | – | – |
| CN1C(=O)[C@@H](NC(=O)c2nnc(Cc3ccccc3)[nH]2)COc2cc3ocnc3cc21 [RIP1-218] | 1.24e-09 M | – | – | – |
| CN1C(=O)[C@@H](NC(=O)c2cccc(Cc3ccccc3)c2)CSc2cc3[nH]ccc3cc21 [RIP1-007] | 3.4e-07 M | – | – | – |
| COc1ncnc2cc3c(cc12)N(C)C(=O)[C@@H](NC(=O)c1cc(Oc2ccccc2)ccn1)CO3 [RIP1-175] | 1.46e-09 M | – | – | – |
| CN1C(=O)[C@@H](NC(=O)c2n[nH]c(Cc3ccc(F)cc3)n2)COc2ccc3cnccc3c21 [RIP1-164] | 3.3e-09 M | – | – | – |
| CN1C(=O)[C@@H](NC(=O)c2nnc(Cc3ccccc3)[nH]2)CSc2cc3occc3cc21 [RIP1-039] | 4.5e-10 M | – | – | – |
| CN1C(=O)[C@@H](NC(=O)c2cc(Cc3ccccc3)on2)COc2cc3[nH]c(C(F)(F)F)nc3cc21 [RIP1-077] | 1.68e-08 M | – | – | – |
| Cc1ccc(Cc2cc(C(=O)N[C@H]3CSc4cc5[nH]ccc5cc4N(C)C3=O)n(C)n2)cc1 [RIP1-044] | 1.91e-08 M | – | – | – |
| CN1C(=O)[C@@H](NC(=O)c2cn(Cc3ccccc3)cn2)CSc2cc3[nH]nc(Cl)c3cc21 [RIP1-028] | 7e-11 M | – | – | – |
| CN1C(=O)[C@@H](NC(=O)c2cc(Cc3ccccc3)on2)CSc2cc3[nH]nc(Cl)c3cc21 [RIP1-029] | 1.2e-10 M | – | – | – |
| CN1C(=O)[C@@H](NC(=O)c2nnc(Cc3ccccc3)[nH]2)CSc2ccc3cnccc3c21 [RIP1-102] | 9e-10 M | – | – | – |
| CN1C(=O)[C@@H](NC(=O)c2n[nH]c(Cc3c(F)cccc3F)n2)COc2ccc3cnccc3c21 [RIP1-161] | 8.6e-09 M | – | – | – |
| Cc1nc2cc3c(cc2[nH]1)OC[C@H](NC(=O)c1cn(Cc2ccccc2)nn1)C(=O)N3C [RIP1-063] | 4.57e-08 M | – | – | – |
| CN1C(=O)[C@@H](NC(=O)c2nnn(Cc3ccccc3)n2)CSc2cc3[nH]ccc3cc21 [RIP1-043] | 1.31e-10 M | – | – | – |
| Cc1ccc(Cc2cc(C(=O)N[C@H]3COc4cc5occc5cc4N(C)C3=O)nn2C)cc1 [RIP1-124] | 2.09e-08 M | – | – | – |
| CN1C(=O)[C@@H](NC(=O)c2cn(Cc3ccccc3)cn2)COc2cc3[nH]ccc3cc21 [RIP1-114] | 8.46e-10 M | – | – | – |
